Data: patent publication US8076338B2, “Kinase modulators and methods of use” (Exelixis, Inc., priority 2004, dated 2011)
Like-named read-outs stand apart in the source and are kept apart here.

Columns and labels:
AktK = AktK (Homo sapiens, UniProt P31749); assay: Luciferase-coupled chemiluminescence kinase assay (ATP consumption); type: biochemical; details: read-out: AKT-1 IC50
Outline: (§1)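 Activity is read as ATP depletion: luciferase-luciferin reagent added after a 3 h ambient-temperature kinase reaction, with total ATP use limited to 25-60%. Before ATP addition, 2.5-5 nM kinase and compound were preincubated 30 min in Tris pH 7.5/MgCl2/TX-100/DTT buffer; […].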

p70S6K = p70S6K (Homo sapiens, UniProt P23443); assay: as above; type: biochemical
Outline: as §1

Sequence of p70S6K (P23443 whole entry): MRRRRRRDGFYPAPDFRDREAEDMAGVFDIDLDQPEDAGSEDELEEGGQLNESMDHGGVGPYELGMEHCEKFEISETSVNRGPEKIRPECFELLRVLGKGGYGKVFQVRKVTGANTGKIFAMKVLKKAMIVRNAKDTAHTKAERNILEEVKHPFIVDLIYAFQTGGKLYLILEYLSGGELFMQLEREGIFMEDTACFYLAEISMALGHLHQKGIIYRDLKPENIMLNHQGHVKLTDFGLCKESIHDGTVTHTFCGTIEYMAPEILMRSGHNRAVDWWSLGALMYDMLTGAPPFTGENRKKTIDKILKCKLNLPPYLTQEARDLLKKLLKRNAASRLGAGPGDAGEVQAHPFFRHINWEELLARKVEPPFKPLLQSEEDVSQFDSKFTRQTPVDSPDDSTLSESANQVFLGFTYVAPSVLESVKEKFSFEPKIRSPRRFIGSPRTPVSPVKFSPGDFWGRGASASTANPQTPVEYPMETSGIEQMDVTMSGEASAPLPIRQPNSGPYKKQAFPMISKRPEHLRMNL
Sequence of AktK (P31749 whole entry): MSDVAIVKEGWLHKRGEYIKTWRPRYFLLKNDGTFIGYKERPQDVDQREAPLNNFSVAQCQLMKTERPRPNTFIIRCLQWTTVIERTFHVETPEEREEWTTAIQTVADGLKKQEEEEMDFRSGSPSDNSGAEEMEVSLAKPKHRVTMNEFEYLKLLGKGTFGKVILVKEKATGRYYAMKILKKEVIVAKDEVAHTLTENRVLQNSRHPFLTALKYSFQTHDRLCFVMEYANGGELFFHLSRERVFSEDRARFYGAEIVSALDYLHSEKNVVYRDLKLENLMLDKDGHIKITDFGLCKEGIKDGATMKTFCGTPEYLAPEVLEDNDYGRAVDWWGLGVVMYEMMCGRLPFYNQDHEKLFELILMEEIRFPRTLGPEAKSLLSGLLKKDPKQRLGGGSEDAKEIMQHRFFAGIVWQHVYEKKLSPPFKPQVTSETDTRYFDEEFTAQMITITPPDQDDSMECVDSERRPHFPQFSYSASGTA

Row | IC50 (AktK) [nM] | IC50 (p70S6K) [nM] | IC50 (AktK; Table 1, class symbols per key) [nM] | IC50 (p70S6K; Table 1, class symbols per key) [nM] | Compound
1 | 1000 to 10000 | 1000 to 10000 |  |  | Cc1ccc(Cl)cc1N1CCN(c2ncnc3[nH]nc(-c4ccc(OCCCN(C)C)cc4)c23)CC1 [Entry 380, 3-[(4-{4-[4-(5-chloro-2-methylphenyl)piperazin-1-yl]-1H-pyrazolo[3,4-d]pyrimidin-3-yl}phenyl)oxy]-N,N-dimethylpropan-1-amine]
2 | 1000 to 10000 | < 100 |  |  | Cc1ccc(Cl)cc1N1CCN(c2ncnc3[nH]nc(CCCO)c23)CC1 [Entry 371, 3-{4-[4-(5-chloro-2-methylphenyl)piperazin-1-yl]-1H-pyrazolo[3,4-d]pyrimidin-3-yl}propan-1-ol]
3 | 1000 to 10000 | 1000 to 10000 |  |  | CCN(CC)CCCc1n[nH]c2ncnc(N3CCN(c4cc(Cl)ccc4C)CC3)c12 [Entry 399, 3-{4-[4-(5-chloro-2-methylphenyl)piperazin-1-yl]-1H-pyrazolo[3,4-d]pyrimidin-3-yl}-N,N-diethylpropan-1-amine]
4 |  |  | ≥ 10000 | 100 to 1000 | Clc1cccc(N2CCN(c3ncnc4[nH]nc(Br)c34)CC2)c1Cl [Entry 150, 3-bromo-4-[4-(2,3-dichlorophenyl)piperazin-1-yl]-1H-pyrazolo[3,4-d]pyrimidine]
5 |  |  | 100 to 1000 | < 100 | Cc1c(NCCN2CCCC2)cc(CO)cc1N1CCN(c2ncnc3[nH]nc(Br)c23)CC1 [Entry 268, {3-[4-(3-bromo-1H-pyrazolo[3,4-d]pyrimidin-4-yl)piperazin-1-yl]-4-methyl-5-[(2-pyrrolidin-1-ylethyl)amino]phenyl}methanol]
6 |  |  | 100 to 1000 | < 100 | Cc1c(Br)cc(C(=O)Nc2ccccc2)cc1N1CCN(c2ncnc3[nH]nc(Br)c23)CC1 [Entry 191, 3-bromo-5-[4-(3-bromo-1H-pyrazolo[3,4-d]pyrimidin-4-yl)piperazin-1-yl]-4-methyl-N-phenylbenzamide]
7 |  |  | < 100 | < 100 | CCCC(F)(F)c1cc(NCCN2CCCC2)c(C)c(N2CCN(c3ncnc4[nH]nc(Br)c34)CC2)c1 [Entry 277, 3-[4-(3-bromo-1H-pyrazolo[3,4-d]pyrimidin-4-yl)piperazin-1-yl]-5-(1,1-difluorobutyl)-2-methyl-N-(2-pyrrolidin-1-ylethyl)aniline]
8 |  |  | 1000 to 10000 | < 100 | CCc1n[nH]c2ncnc(N3CCN(c4cc(Cl)cc(OCCCN5CCOCC5)c4C)CC3)c12 [Entry 26, 4-(4-{5-chloro-2-methyl-3-[(3-morpholin-4-ylpropyl)oxy]phenyl}piperazin-1-yl)-3-ethyl-1H-pyrazolo[3,4-d]pyrimidine]
9 | 1000 to 10000 | < 100 |  |  | CCc1n[nH]c2ncnc(N3CCN(c4cccc(Cl)c4)C(CO)C3)c12 (centres unmarked) [Entry 379, [1-(3-chlorophenyl)-4-(3-ethyl-1H-pyrazolo[3,4-d]pyrimidin-4-yl)piperazin-2-yl]methanol]
10 |  |  | ≥ 10000 | 100 to 1000 | CCc1n[nH]c2ncnc(N3CCN(c4ccccc4)CC3)c12 [Entry 98, 3-ethyl-4-(4-phenylpiperazin-1-yl)-1H-pyrazolo[3,4-d]pyrimidine]
11 |  |  | 100 to 1000 | < 100 | Cc1c(OCCN2CCN(C)CC2)cc(Cl)cc1N1CCN(c2ncnc3[nH]nc(C(F)(F)F)c23)CC1 [Entry 73, 4-[4-(5-chloro-2-methyl-3-{[2-(4-methylpiperazin-1-yl)ethyl]oxy}phenyl)piperazin-1-yl]-3-(trifluoromethyl)-1H-pyrazolo[3,4-d]pyrimidine]
12 |  |  | 100 to 1000 | < 100 | Cc1c(OCC2CCN(C)CC2)cc(Cl)cc1N1CCN(c2ncnc3[nH]nc(C(F)(F)F)c23)CC1 [Entry 90, 4-[4-(5-chloro-2-methyl-3-{[(1-methylpiperidin-4-yl)methyl]oxy}phenyl)piperazin-1-yl]-3-(trifluoro-methyl)-1H-pyrazolo[3,4-d]pyrimidine]
13 | ≥ 10000 | 1000 to 10000 |  |  | COc1ccc(N2CCN(c3ncnc4[nH]cnc34)CC2)cc1 [Entry 306, 6-{4-[4-(methyloxy)phenyl]piperazin-1-yl}-9H-purine]
14 |  |  | 100 to 1000 | < 100 | Cn1c(CCCO)nc2c(N3CCN(c4ncnc5[nH]nc(Br)c45)CC3)cc(C(F)(F)F)cc21 [Entry 273, 3-[4-[4-(3-bromo-1H-pyrazolo[3,4-d]pyrimidin-4-yl)piperazin-1-yl]-1-methyl-6-(trifluoromethyl)-1H-benzimidazol-2-yl]propan-1-ol]
15 |  |  | 100 to 1000 | < 100 | CCc1n[nH]c2ncnc(N3CCN(c4cc(Cl)cc(OCCN5CCN(C)CC5)c4C)CC3)c12 [Entry 30, 4-[4-(5-chloro-2-methyl-3-{[2-(4-methylpiperazin-1-yl)ethyl]oxy}phenyl)piperazin-1-yl]-3-ethyl-1H-pyrazolo[3,4-d]pyrimidine]
16 | ≥ 10000 | 1000 to 10000 |  |  | Fc1ccccc1N1CCN(c2ncnc3[nH]cnc23)CC1 [Entry 300, 6-[4-(2-fluorophenyl)piperazin-1-yl]-9H-purine]
17 |  |  | ≥ 10000 | 100 to 1000 | Brc1ccc(N2CCN(c3ncnc4[nH]nc(Br)c34)CC2)cc1 [Entry 157, 3-bromo-4-[4-(4-bromophenyl)piperazin-1-yl]-1H-pyrazolo[3,4-d]pyrimidine]
18 |  |  | ≥ 10000 | 100 to 1000 | Fc1ccc(N2CCN(c3ncnc4[nH]nc(Br)c34)CC2)cc1 [Entry 153, 3-bromo-4-[4-(4-fluorophenyl)piperazin-1-yl]-1H-pyrazolo[3,4-d]pyrimidine]
19 | 1000 to 10000 | 100 to 1000 |  |  | CCc1n[nH]c2ncnc(N3CCN(c4cc(Cl)cc(C(=O)OC)c4OC)CC3)c12 [Entry 368, methyl 5-chloro-3-[4-(3-ethyl-1H-pyrazolo[3,4-d]pyrimidin-4-yl)piperazin-1-yl]-2-(methyloxy)benzoate]
20 |  |  | ≥ 10000 | < 100 | CCc1n[nH]c2ncnc(N3CCN(c4cc(Cl)cc(OC)c4)CC3)c12 [Entry 113, 4-{4-[3-chloro-5-(methyloxy)phenyl]piperazin-1-yl}-3-ethyl-1H-pyrazolo[3,4-d]pyrimidine]
21 |  |  | < 100 | < 100 | Cc1ccc(-c2ccccc2OCCCN2CCOCC2)cc1N1CCN(c2ncnc3[nH]nc(Br)c23)CC1 [Entry 278, 3-bromo-4-(4-{4-methyl-2′-[(3-morpholin-4-ylpropyl)oxy]biphenyl-3-yl}piperazin-1-yl)-1H-pyrazolo[3,4-d]pyrimidine]

Row | Compound | IC50 (AktK) [nM] | IC50 (p70S6K) [nM] | IC50 (AktK; Table 1, class symbols per key) [nM] | IC50 (p70S6K; Table 1, class symbols per key) [nM]
22 | CCc1n[nH]c2ncnc(N3CCN(c4ncccc4C(N)=O)CC3)c12 [Entry 115, 2-[4-(3-ethyl-1H-pyrazolo[3,4-d]pyrimidin-4-yl)piperazin-1-yl]pyridine-3-carboxamide] |  |  | ≥ 10000 | 100 to 1000
23 | c1ccc(N2CCN(c3ncnc4[nH]ccc34)CC2)cc1 [Entry 295, 4-(4-phenylpiperazin-1-yl)-7H-pyrrolo[2,3-d]pyrimidine] | ≥ 10000 | 100 to 1000 |  | 
24 | Cc1ccc(Cl)cc1N1CCN(c2ncnc3[nH]nc(C4=CCNCC4)c23)CC1 [Entry 401, 4-[4-(5-chloro-2-methylphenyl)piperazin-1-yl]-3-(1,2,3,6-tetrahydropyridin-4-yl)-1H-pyrazolo[3,4-d]pyrimidine] | 1000 to 10000 | < 100 |  | 
25 | CCCOc1cc(NCCN2CCCC2)c(C)c(N2CCN(c3ncnc4[nH]nc(Br)c34)CC2)c1 [Entry 224, 3-[4-(3-bromo-1H-pyrazolo[3,4-d]pyrimidin-4-yl)piperazin-1-yl]-2-methyl-5-(propyloxy)-N-(2-pyrrolidin-1-ylethyl)aniline] |  |  | < 100 | < 100
